From patent publication US20240285571A1, “METHODS OF TREATING BONE INFECTIONS” (MICROBION CORPORATION, priority 2020, published 2024)
Values after ≈ are worked out from the molar mass of the structure shown. Where two headings read alike, the source gives them in different places.

Legend:
Format in all cases: cell-based
Escherichia coli = assay: Broth microdilution MIC (Example 6); conditions: Escherichia coli
Outline: (§1)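 Activity was measured by CLSI broth microdilution using 2-fold serial dilutions and an inoculum of about 5×10^5 CFU/mL. Plates were incubated at 35 °C for 16 to 20 hr. The MIC is the lowest drug concentration that prevented visible growth.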

Klebsiella pneumoniae = assay: Broth microdilution MIC (Example 6); conditions: Klebsiella pneumoniae
Outline: as §1

Pseudomonas aeruginosa = assay: Broth microdilution MIC (Example 6); conditions: Pseudomonas aeruginosa
Outline: as §1

Acinetobacter baumannii = assay: Broth microdilution MIC (Example 6); conditions: Acinetobacter baumannii
Outline: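 CLSI broth microdilution in cation-adjusted Mueller Hinton broth, test agents 0.06-64 μg/mL from DMSO stocks, inoculum approx. 5×10^5 CFU/mL. Incubation 35° C for 16–20 hr; MIC taken as lowest concentration inhibiting visible growth.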

[1] = system: relevant ATCC QC organisms; assay: Broth microdilution MIC, QC (Example 6)
Outline: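 QC strains were tested per CLSI broth microdilution in cation-adjusted Mueller Hinton broth, with Ca2+ supplemented for daptomycin, at about 5×10^5 CFU/mL. Incubation was at 35° C for 16–20 hr, or 24 hr for vancomycin against S. aureus. The MIC was the lowest concentration inhibiting visible growth.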

[2] = ATCC35218, E. coli ATCC 35218, ESBL, read-out: MIC
[3] = E. coli MMX 5755, ESBL, read-out: MIC
[4] = E. coli MMX 5756, ESBL, read-out: MIC
[5] = E. coli MMX 5758, ESBL, read-out: MIC
[6] = K. pneumoniae CDC 135, ESBL/VIM, read-out: MIC
[7] = K. pneumoniae MMX 9029, ESBL, read-out: MIC
[8] = P. aeruginosa isolate CDC 230, β-lactamase type VIM/OXA, read-out: MIC
[9] = P. aeruginosa isolate CDC 241, β-lactamase type IMP/OXA, read-out: MIC
[10] = P. aeruginosa isolate CDC 439, β-lactamase type IMP, read-out: MIC
[11] = P. aeruginosa isolate CDC 444, β-lactamase type VIM, read-out: MIC
[12] = P. aeruginosa isolate CDC 457, β-lactamase type VIM, read-out: MIC

## OCC(S)CS.[Bi] (stereo not shown) [MB-2B, bismuth-2,3-dimercaptopropanol]
Escherichia coli; [2]
  MIC: 2 µg/mL
Escherichia coli; ATCCBAA2471, E. coli ATCC BAA-2471, NDM
  MIC: 2 µg/mL
Escherichia coli; E. coli CDC 114, ESBL/KPC
  MIC: 2 µg/mL
Escherichia coli; E. coli CDC 118, ESBL/NDM
  MIC: 4 µg/mL
Escherichia coli; E. coli CDC 435, NDM
  MIC: 2 µg/mL
Escherichia coli; E. coli CDC 451, KPC
  MIC: 2 µg/mL
Escherichia coli; E. coli CDC 503, ESBL/NDM
  MIC: 2 µg/mL
Escherichia coli; E. coli MMX 5745, KPC
  MIC: 4 µg/mL
Escherichia coli; [3]
  MIC: 4 µg/mL
Escherichia coli; [4]
  MIC: 2 µg/mL
Escherichia coli; [5]
  MIC: 4 µg/mL
Klebsiella pneumoniae; ATCCBAA1705, K. pneumoniae ATCC BAA-1705, ESBL/KPC
  MIC: 4 µg/mL
Klebsiella pneumoniae; K. pneumoniae CDC 112, KPC
  MIC: 4 µg/mL
Klebsiella pneumoniae; K. pneumoniae CDC 113, ESBL/KPC
  MIC: 32 µg/mL
Klebsiella pneumoniae; K. pneumoniae CDC 115, ESBL/KPC
  MIC: 16 µg/mL
Klebsiella pneumoniae; K. pneumoniae CDC 120, ESBL/KPC
  MIC: 4 µg/mL
Klebsiella pneumoniae; K. pneumoniae CDC 126, ESBL/KPC
  MIC: 32 µg/mL
Klebsiella pneumoniae; K. pneumoniae CDC 129, ESBL/KPC
  MIC: 4 µg/mL
Klebsiella pneumoniae; [6]
  MIC: 8 µg/mL
Klebsiella pneumoniae; K. pneumoniae CDC 138, ESBL/NDM
  MIC: 16 µg/mL
Klebsiella pneumoniae; K. pneumoniae CDC 158, ESBL/NDM/OXA
  MIC: 4 µg/mL
Klebsiella pneumoniae; [7]
  MIC: 2 µg/mL
Pseudomonas aeruginosa; [8]
  MIC: 4 µg/mL
Pseudomonas aeruginosa; P. aeruginosa isolate CDC 231, β-lactamase type KPC/OXA
  MIC: 16 µg/mL
Pseudomonas aeruginosa; [9]
  MIC: 32 µg/mL
Pseudomonas aeruginosa; P. aeruginosa isolate CDC 246, β-lactamase type NDM/OXA
  MIC: 8 µg/mL
Pseudomonas aeruginosa; P. aeruginosa isolate CDC 250, β-lactamase type NDM/OXA
  MIC: 8 µg/mL
Pseudomonas aeruginosa; P. aeruginosa isolate CDC 356, β-lactamase type KPC
  MIC: 4 µg/mL
Pseudomonas aeruginosa; [10]
  MIC: 4 µg/mL
Pseudomonas aeruginosa; [11]
  MIC: 4 µg/mL
Pseudomonas aeruginosa; [12]
  MIC: 32 µg/mL
Pseudomonas aeruginosa; P. aeruginosa isolate CDC 516, β-lactamase type KPC/AmpC
  MIC: 4 µg/mL
Pseudomonas aeruginosa; P. aeruginosa isolate CDC 518, β-lactamase type KPC/AmpC
  MIC: 4 µg/mL
Acinetobacter baumannii; A. baumannii isolate CDC 273, β-lactamase type ESBL/OXA
  MIC: 32 µg/mL
Acinetobacter baumannii; A. baumannii isolate CDC 274, β-lactamase type ESBL/OXA
  MIC: 32 µg/mL
Acinetobacter baumannii; A. baumannii isolate CDC 275, β-lactamase type ESBL/OXA
  MIC: 32 µg/mL
Acinetobacter baumannii; A. baumannii isolate CDC 277, β-lactamase type ESBL/OXA
  MIC: > 16 µg/mL
Acinetobacter baumannii; A. baumannii isolate CDC 284, β-lactamase type ESBL/OXA
  MIC: > 16 µg/mL
Acinetobacter baumannii; A. baumannii isolate CDC 307, β-lactamase type OXA
  MIC: 32 µg/mL
Acinetobacter baumannii; A. baumannii isolate CDC 308, β-lactamase type ESBL/OXA
  MIC: 32 µg/mL
Acinetobacter baumannii; A. baumannii isolate CDC 311, β-lactamase type OXA
  MIC: 32 µg/mL
Acinetobacter baumannii; A. baumannii isolate CDC 312, β-lactamase type OXA
  MIC: 32 µg/mL
Acinetobacter baumannii; A. baumannii isolate CDC 313, β-lactamase type ESBL/OXA
  MIC: 32 µg/mL
Acinetobacter baumannii; NCTC13304, A. baumannii isolate NCTC 13304, β-lactamase type OXA
  MIC: > 16 µg/mL
[1]; Escherichia coli, ATCC25922
  MIC: 2 µg/mL
[1]; Escherichia coli, ATCC35218
  MIC: 2 µg/mL
[1]; Klebsiella pneumoniae, ATCCBAA1705
  MIC: 4 µg/mL
[1]; Pseudomonas aeruginosa, ATCC27853
  MIC: 2 µg/mL
[1]; Staphylococcus aureus, ATCC29213
  MIC: 1 µg/mL

## C[C@@H](O)[C@H]1C(=O)N2C(C(=O)O)=C(S[C@@H]3CN[C@H](C(=O)N(C)C)C3)[C@H](C)[C@H]12 [Meropenem]
Escherichia coli; [2]
  MIC: ≤ 0.008 µg/mL
Escherichia coli; ATCCBAA2471, E. coli ATCC BAA-2471, NDM, read-out: MIC
  MIC: > 8 µg/mL
Escherichia coli; E. coli CDC 114, ESBL/KPC, read-out: MIC
  MIC: 2 µg/mL (≈ 5.22 µM)
Escherichia coli; E. coli CDC 118, ESBL/NDM, read-out: MIC
  MIC: 0.06 µg/mL (≈ 0.156 µM)
Escherichia coli; E. coli CDC 435, NDM, read-out: MIC
  MIC: > 8 µg/mL
Escherichia coli; E. coli CDC 451, KPC, read-out: MIC
  MIC: 1 µg/mL (≈ 2.61 µM)
Escherichia coli; E. coli CDC 503, ESBL/NDM, read-out: MIC
  MIC: 8 µg/mL (≈ 20.9 µM)
Escherichia coli; E. coli MMX 5745, KPC, read-out: MIC
  MIC: 2 µg/mL (≈ 5.22 µM)
Escherichia coli; [3]
  MIC: 0.015 µg/mL (≈ 0.0391 µM)
Escherichia coli; [4]
  MIC: ≤ 0.008 µg/mL
Escherichia coli; [5]
  MIC: ≤ 0.008 µg/mL
Klebsiella pneumoniae; ATCCBAA1705, K. pneumoniae ATCC BAA-1705, ESBL/KPC, read-out: MIC
  MIC: 8 µg/mL (≈ 20.9 µM)
Klebsiella pneumoniae; K. pneumoniae CDC 112, KPC, read-out: MIC
  MIC: > 8 µg/mL
Klebsiella pneumoniae; K. pneumoniae CDC 113, ESBL/KPC, read-out: MIC
  MIC: > 8 µg/mL
Klebsiella pneumoniae; K. pneumoniae CDC 115, ESBL/KPC, read-out: MIC
  MIC: > 8 µg/mL
Klebsiella pneumoniae; K. pneumoniae CDC 120, ESBL/KPC, read-out: MIC
  MIC: > 8 µg/mL
Klebsiella pneumoniae; K. pneumoniae CDC 126, ESBL/KPC, read-out: MIC
  MIC: 4 µg/mL (≈ 10.4 µM)
Klebsiella pneumoniae; K. pneumoniae CDC 129, ESBL/KPC, read-out: MIC
  MIC: 8 µg/mL (≈ 20.9 µM)
Klebsiella pneumoniae; [6]
  MIC: 1 µg/mL (≈ 2.61 µM)
Klebsiella pneumoniae; K. pneumoniae CDC 138, ESBL/NDM, read-out: MIC
  MIC: > 8 µg/mL
Klebsiella pneumoniae; K. pneumoniae CDC 158, ESBL/NDM/OXA, read-out: MIC
  MIC: > 8 µg/mL
Klebsiella pneumoniae; [7]
  MIC: 0.015 µg/mL (≈ 0.0391 µM)
Pseudomonas aeruginosa; [8]
  MIC: > 8 µg/mL
Pseudomonas aeruginosa; P. aeruginosa isolate CDC 231, β-lactamase type KPC/OXA, read-out: MIC
  MIC: > 8 µg/mL
Pseudomonas aeruginosa; [9]
  MIC: > 8 µg/mL
Pseudomonas aeruginosa; P. aeruginosa isolate CDC 246, β-lactamase type NDM/OXA, read-out: MIC
  MIC: > 8 µg/mL
Pseudomonas aeruginosa; P. aeruginosa isolate CDC 250, β-lactamase type NDM/OXA, read-out: MIC
  MIC: > 8 µg/mL
Pseudomonas aeruginosa; P. aeruginosa isolate CDC 356, β-lactamase type KPC, read-out: MIC
  MIC: > 8 µg/mL
Pseudomonas aeruginosa; [10]
  MIC: > 8 µg/mL
Pseudomonas aeruginosa; [11]
  MIC: > 8 µg/mL
Pseudomonas aeruginosa; [12]
  MIC: > 8 µg/mL
Pseudomonas aeruginosa; P. aeruginosa isolate CDC 516, β-lactamase type KPC/AmpC, read-out: MIC
  MIC: > 8 µg/mL
Pseudomonas aeruginosa; P. aeruginosa isolate CDC 518, β-lactamase type KPC/AmpC, read-out: MIC
  MIC: > 8 µg/mL
Acinetobacter baumannii; A. baumannii isolate CDC 273, β-lactamase type ESBL/OXA, read-out: MIC
  MIC: > 8 µg/mL
Acinetobacter baumannii; A. baumannii isolate CDC 274, β-lactamase type ESBL/OXA, read-out: MIC
  MIC: > 8 µg/mL
Acinetobacter baumannii; A. baumannii isolate CDC 275, β-lactamase type ESBL/OXA, read-out: MIC
  MIC: > 8 µg/mL
Acinetobacter baumannii; A. baumannii isolate CDC 277, β-lactamase type ESBL/OXA, read-out: MIC
  MIC: > 8 µg/mL
Acinetobacter baumannii; A. baumannii isolate CDC 284, β-lactamase type ESBL/OXA, read-out: MIC
  MIC: > 8 µg/mL
Acinetobacter baumannii; A. baumannii isolate CDC 307, β-lactamase type OXA, read-out: MIC
  MIC: 8 µg/mL
Acinetobacter baumannii; A. baumannii isolate CDC 308, β-lactamase type ESBL/OXA, read-out: MIC
  MIC: 8 µg/mL
Acinetobacter baumannii; A. baumannii isolate CDC 311, β-lactamase type OXA, read-out: MIC
  MIC: > 8 µg/mL
Acinetobacter baumannii; A. baumannii isolate CDC 312, β-lactamase type OXA, read-out: MIC
  MIC: 4 µg/mL
Acinetobacter baumannii; A. baumannii isolate CDC 313, β-lactamase type ESBL/OXA, read-out: MIC
  MIC: > 8 µg/mL
Acinetobacter baumannii; NCTC13304, A. baumannii isolate NCTC 13304, β-lactamase type OXA, read-out: MIC
  MIC: > 8 µg/mL
[1]; Escherichia coli, ATCC25922, E. coli ATCC 25922, read-out: MIC
  MIC: ≤ 0.008 µg/mL
[1]; Escherichia coli, ATCC35218, E. coli ATCC 35218, read-out: MIC
  MIC: ≤ 0.008 µg/mL
[1]; Klebsiella pneumoniae, ATCCBAA1705, K. pneumoniae ATCC BAA-1705, read-out: MIC
  MIC: 8 µg/mL
[1]; Pseudomonas aeruginosa, ATCC27853, P. aeruginosa ATCC 27853, read-out: MIC
  MIC: 0.25 µg/mL
